Laboratory results from US10363251B2, “(+)-morphinans as antagonists of toll-like receptor 9 and therapeutic uses thereof” (Mallinckrodt LLC, priority 2009, dated 2019).
“Also recorded” adds a separate entry of the source. Like-named read-outs stand apart in the source and are kept apart here.

Legend:
[1] = tested on: chronic constriction injury (CCI) neuropathic pain model; assay: Reversal of allodynia (von Frey) in CCI rats, 4 days of dosing, Example 4; type: in vivo, rat; details: for Animals sleepier/sedated on at least one post dosing occasion / Local observations (swelling, irritation): i.p.; for Reversal of allodynia (von Frey): i.p. once a day for 4 days from day 14, tested 3 hrs after dosing, ultra low to high dose; for Reversal of allodynia (von Frey) / Area under the curve (AUC) analysis of allodynia: vs saline; for Area under the curve (AUC) analysis of allodynia: i.p. once a day for 4 days
Procedure: Allodynia was induced in a group of (male, Sprague-Dawley) rats essentially as described above in Example 3. Prior to surgery, animals were tested to establish their baseline von Frey scores. Any animal with a Log absolute von Frey score lower than 4.65 on either leg was excluded from the study. CCI surgery was performed on the left sciatic nerve as detailed above. On days 4 and 14 post-surgery, the animals were tested using the von Frey test of mechanical allodynia to ensure that allodynia was established.
Beginning at about day 14 post-surgery, the animals were dosed once a day for 4 days. Compounds II-25, II-93, II-62, and III-2 were tested. All drugs were administered intraperitoneally (i.p.). Allodynia was tested prior to and again 3 hrs after each dosing. Drug administration and testing was done blindly. After the 4th day of dosing, the animals were sacrificed, cardiac perfusion was performed, and spinal cords were removed and stored for further analysis.
All data were analyzed using 2-way ANOVA's with Bonferroni's post hoc test compared to saline unless otherwise stated. Area under curve (AUC) was calculated using Graphpad Prism and comparisons were made using 1-way ANOVA with Dunnet's post hoc test.

TLR9 = biological target: T1, TLR9 (Homo sapiens, UniProt Q9NR96); assay: TLR9 screening of (+)-morphinan library, SEAP reporter in HEK293 cells expressing TLR9; type: cell-based; details: activator ODN2006; for OD 650 nm (mean ± sd): control (no activator) 0.14, activator 1.42 OD
T1 construct: expressed in transfected cells; host or cells: HEK293
T1 sequence (Q9NR96 26-1032): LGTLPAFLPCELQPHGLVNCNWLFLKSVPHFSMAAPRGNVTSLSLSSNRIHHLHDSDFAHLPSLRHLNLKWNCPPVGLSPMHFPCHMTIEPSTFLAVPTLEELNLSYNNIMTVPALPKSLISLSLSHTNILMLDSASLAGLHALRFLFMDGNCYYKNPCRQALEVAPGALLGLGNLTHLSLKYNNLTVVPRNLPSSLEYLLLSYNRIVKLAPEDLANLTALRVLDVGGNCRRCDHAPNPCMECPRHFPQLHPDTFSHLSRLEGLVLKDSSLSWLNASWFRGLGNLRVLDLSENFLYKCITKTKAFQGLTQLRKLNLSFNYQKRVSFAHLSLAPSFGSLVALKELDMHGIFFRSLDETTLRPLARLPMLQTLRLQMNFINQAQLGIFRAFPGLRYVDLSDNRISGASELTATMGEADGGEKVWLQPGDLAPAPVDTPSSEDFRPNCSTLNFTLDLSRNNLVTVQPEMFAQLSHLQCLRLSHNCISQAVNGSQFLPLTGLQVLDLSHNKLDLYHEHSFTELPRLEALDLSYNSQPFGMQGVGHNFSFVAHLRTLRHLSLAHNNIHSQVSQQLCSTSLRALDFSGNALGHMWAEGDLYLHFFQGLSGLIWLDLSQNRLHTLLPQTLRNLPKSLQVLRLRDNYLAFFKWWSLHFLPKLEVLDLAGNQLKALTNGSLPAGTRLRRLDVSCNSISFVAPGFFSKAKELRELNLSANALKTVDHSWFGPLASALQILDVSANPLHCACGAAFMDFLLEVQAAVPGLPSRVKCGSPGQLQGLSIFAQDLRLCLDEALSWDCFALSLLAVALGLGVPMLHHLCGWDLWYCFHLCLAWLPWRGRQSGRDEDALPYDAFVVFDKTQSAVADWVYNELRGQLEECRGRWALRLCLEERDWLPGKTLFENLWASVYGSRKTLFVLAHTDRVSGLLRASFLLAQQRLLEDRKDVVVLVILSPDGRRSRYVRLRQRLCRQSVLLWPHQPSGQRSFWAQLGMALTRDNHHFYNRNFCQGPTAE
Procedure, shortened: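 HEK293 cells expressing TLR9 with an NF-κB-inducible SEAP reporter were preincubated with compound at 10 μM and 100 nM for 30 min at 37 °C, then stimulated with ODN2006. SEAP was read as OD 650 nm after 16-20 h, in triplicate.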

[2] = tested on: APAP-induced liver toxicity; assay: Acetaminophen (APAP)-induced hepatotoxicity model; type: in vivo, mouse; details: APAP 500 mg/Kg ip, 12 hours post-APAP; for Protection from APAP-induced toxicity: test doses and timing per Table 6; for Liver histology scores (necrosis and hemorrhage): vs APAP alone
Procedure: For this, APAP-induced liver toxicity was induced in male C57BL/6 mice aged between 8-10 weeks by a single intraperitoneal (ip) injection of APAP in PBS at a dose of 500 mg/Kg (Imaeda et al. (2009) J. Clin. Invest. 119(2):305-314). The ability of (+)-morphinans to reduce liver toxicity was tested in the following groups:
The (+)-morphinan (or PBS) was either administered as a single subcutaneous (sc) or ip injection concurrent with the APAP injection or one hour prior to the APAP injection.
The mice were sacrificed 12 hours post-APAP treatment. Liver samples were stained with H&E and analyzed for signs of necrosis and hemorrhage. Histology scores were assigned using the standard rating scale. The levels of serum alanine transaminase (ALT) were also measured in each animal using a standard assay.

[3] = HEK293, read-out: % Inhibition (mean), 100 nM
[4] = HEK293, read-out: % Inhibition (mean), 10 μM
[5] = HEK293, 100 nM, read-out: % Inhibition (mean)
[6] = HEK293, 10 μM, read-out: % Inhibition (mean)

Structure (SMILES)	OD 650 nm (mean ± sd) (TLR9; 100 nM) [OD]	OD 650 nm (mean ± sd) (TLR9; 10 μM) [OD]	inhibition at 0.1 µM (TLR9; [3]) [%]	inhibition at 10 µM (TLR9; [4]) [%]	inhibition at 0.1 µM (TLR9; [5]) [%]	inhibition at 10 µM (TLR9; [6]) [%]	also measured
COc1ccc2c3c1O[C@@H]1[C@H](O)CC[C@@H]4[C@H](C2)N(CC2CC2)CC[C@]341 [II-25]	1.33 ± 0.07	0.21 ± 0.06	6	85	–	–	Animals sleepier/sedated on at least one post dosing occasion ([1]; high dose): 5-6; Reversal of allodynia (von Frey) [1]: significant overall effect on the reversal of allodynia bilaterally; also recorded: effective at reversing mechanical allodynia; Area under the curve (AUC) analysis of allodynia [1]: significantly reversed allodynia
CN(C(=O)/C=C/c1ccoc1)[C@H]1CC[C@]2(O)[C@@H]3Cc4ccc(O)c5c4[C@]2(CCN3CC2CC2)[C@@H]1O5 [II-62]	1.34 ± 0.05	0.18 ± 0.01	6	87	–	–	Time course analysis of allodynia, ipsilateral paw ([1]; Day 4 of dosing): slight reversal of allodynia; Animals sleepier/sedated on at least one post dosing occasion ([1]; high dose): two; Local observations (swelling, irritation) ([1]; high dose): appeared to irritate the rats when it was injected; also recorded: swelling around the site of injection; Reversal of allodynia (von Frey) [1]: did not significantly reverse allodynia at any dose; Area under the curve (AUC) analysis of allodynia [1]: no overall effect of any dose; Animals sleepier/sedated on at least one post dosing occasion ([1]; low dose): one; Animals sleepier/sedated on at least one post dosing occasion ([1]; medium dose): one
C=CCN1CC[C@@]23c4c5ccc(OC)c4OC2C(NCCC)CCC3C1C5 (stereo partly drawn) [II-93]	0.12 ± 0.00	0.11 ± 0.01	91	92	–	–	Animals sleepier/sedated on at least one post dosing occasion ([1]; high dose): 7; Local observations (swelling, irritation) ([1]; high dose): swelling of the ipsilateral paw; Reversal of allodynia (von Frey) [1]: significantly reversed allodynia in the ipsilateral paw after the high dose only; also recorded: effective at reversing mechanical allodynia; Area under the curve (AUC) analysis of allodynia [1]: significant reversal of allodynia in the ipsilateral paw; Animals sleepier/sedated on at least one post dosing occasion ([1]; low dose): one; Animals sleepier/sedated on at least one post dosing occasion ([1]; medium dose): two; Protection from APAP-induced toxicity [2]: None of compounds II-24, II-93, or III-2 provided any protection; Liver histology scores (necrosis and hemorrhage) [2]: about the same as those only exposed to APAP
COC1=CCC2[C@@H]3Cc4ccc(OC)c5c4[C@]2(CCN3CC2CC2)[C@@H]1O5 (stereo partly drawn) [II-95]	1.11 ± 0.04	0.37 ± 0.03	–	74	–	–	% Inhibition (mean) (TLR9; 100 nM, 0.1 µM): 22%
COC1=CCC2[C@@H]3Cc4ccc(OC)c5c4[C@]2(CCN3C)[C@@H]1O5 (stereo partly drawn) [II-96]	1.15 ± 0.06	0.42 ± 0.02	19	71	–	–	–
COc1ccc2c3c1O[C@@H]1C4(CCC5[C@H](C2)N(CC2CC2)CC[C@]351)OCCO4 (stereo partly drawn) [II-97]	1.22 ± 0.02	1.42 ± 0.07	14	0	–	–	–
COc1ccc2c3c1O[C@@H]1C(OC)(OC)CCC4[C@H](C2)N(CC2CC2)CC[C@]341 (stereo partly drawn) [II-99]	1.32 ± 0.00	0.14 ± 0.01	7	90	–	–	–
COC1=CCC2[C@@H]3Cc4ccc(OC)c5c4[C@]2(CCN3C(=O)Oc2ccccc2)[C@@H]1O5 (stereo partly drawn) [II-100]	1.16 ± 0.02	1.45 ± 0.11	18	-2	–	–	–
COc1ccc2c3c1O[C@@H]1C(OC)(OC)C(Br)CC4[C@H](C2)N(C)CC[C@]341 (stereo partly drawn) [II-101]	1.35 ± 0.06	0.94 ± 0.02	5	34	–	–	–
COc1ccc2c(c1)CCN[C@@H]2Cc1ccc(OC)c(O)c1 [III-1]	1.34 ± 0.06	0.67 ± 0.01	–	–	6	53	–
C=CCN1CCc2cc(OC)ccc2[C@H]1Cc1ccc(OC)c(O)c1 [III-2]	1.13 ± 0.02	0.42 ± 0.04	–	–	21	71	Reversal of allodynia (von Frey) [1]: no effect on allodynia at any dose; Animals sleepier/sedated on at least one post dosing occasion ([1]; low dose): Two; Protection from APAP-induced toxicity [2]: None of compounds II-24, II-93, or III-2 provided any protection; Liver histology scores (necrosis and hemorrhage) [2]: about the same as those only exposed to APAP
COc1ccc2c(c1)CCN(CC1CC1)[C@@H]2Cc1ccc(OC)c(O)c1 [III-3]	1.03 ± 0.03	0.13 ± 0.01	–	–	27	91	–
COc1ccc2c(c1)CCN(CC1CCC1)[C@@H]2Cc1ccc(OC)c(O)c1 [III-4]	1.04 ± 0.04	0.11 ± 0.01	–	–	27	92	–
COc1ccc2c(c1)CCN(C)[C@@H]2Cc1ccc(OC)c(O)c1 [III-5]	1.11 ± 0.02	0.29 ± 0.01	–	–	22	80	–
